{"source": "paper PMC9984387", "about": "“The dynamic nature of netrin-1 and the structural basis for glycosaminoglycan fragment-induced filament formation” (Nature Communications, 2023)", "target": "NET1ΔC (Gallus gallus, UniProt Q90922)", "assay": "X-ray crystal structure (native crystals soaked in SOS)", "type": "binding", "conditions": "10 mM SOS soak 5-7 days; crystals from PEG 8000, CHES pH 9.5; one SOS per monomer, two sites SOSab and SOScd in LE-2 subdomain"}
{"compound": "O=S(=O)(O)OC[C@H]1O[C@@](COS(=O)(=O)O)(O[C@H]2O[C@H](COS(=O)(=O)O)[C@@H](OS(=O)(=O)O)[C@H](OS(=O)(=O)O)[C@H]2OS(=O)(=O)O)[C@@H](OS(=O)(=O)O)[C@@H]1OS(=O)(=O)O", "note": "[SOS, sucrose-octasulfate]", "values": [{"measurement": "X-ray crystal structure (native crystals soaked in SOS)", "result": "in complex with one sucrose-octasulfate molecule bound per monomer"}]}
